Some test systems named below: PC-3 prostate; SK-OV-3 ovarian; SNB-75 CNS; DU-145 prostate; SK-MEL-28 melanoma; SK-MEL-2 melanoma; NCI-H23 lung.
Common to all, as to assay: DTP human tumour cell line panel, 48 h

Experimental findings from PubChem BioAssay (NCI) are described below.

Where “and” joins values, the source holds several entries; their conditions need not be identical. Equal values may be shown once.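 1) Cells in 96-well plates. 2) Compound, 48 h, 5 concentrations. 3) Linear interpolation between surrounding doses. 4) Unreached endpoint = highest concentration. Here, GI50 denotes the concentration required for 50% inhibition of growth. TGI: total growth inhibition.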

As usually defined, the GI50 is the concentration giving 50% growth inhibition. For orientation: TGI means the concentration at which net growth stops. With `Cc1ccc(C2=NOC3=c4ccccc4=CSC3=C2c2ccc([N+](=O)[O-])cc2)cc1`, the GI50 was 14.3 µM with PC-3 prostate; 6.91 µM in the experiment with SK-OV-3 ovarian; 24.5 µM with SNB-75 CNS; 15.2 µM with DU-145 prostate; above 100 µM with SK-MEL-28 melanoma; 31.5 µM with SK-MEL-2 melanoma. Moreover, the GI50 in the experiment on NCI-H23 lung was 17.8 µM. The TGI was 65.3 µM with PC-3 prostate; 49 µM with SK-OV-3 ovarian; 81.4 µM with SNB-75 CNS; above 100 µM with DU-145 prostate; above 100 µM in the experiment on SK-MEL-28 melanoma; above 100 µM in the experiment on SK-MEL-2 melanoma. For the same compound, the concentration for total growth inhibition (TGI) in the experiment on NCI-H23 lung came out at 53.7 µM.
Turning to `N/C(=N\N=C\c1ccc(-c2ccccc2)cc1)N[N+](=O)[O-]`, the GI50 in the experiment on PC-3 prostate is 3.81 µM; in the experiment on SK-OV-3 ovarian, 3.87 µM; with SNB-75 CNS, 1.06 µM; in the experiment with DU-145 prostate it was 5.76 µM; with SK-MEL-28 melanoma it was 25.3 µM; with SK-MEL-2 melanoma, 4.82 µM. Also, the GI50 in the experiment with NCI-H23 lung is 9.2 µM. Moreover, the TGI in the experiment on PC-3 prostate is above 100 µM; in the experiment on SK-OV-3 ovarian, above 100 µM; in the experiment with SNB-75 CNS, 6.62 µM; with DU-145 prostate, above 100 µM; in the experiment with SK-MEL-28 melanoma, above 100 µM; with SK-MEL-2 melanoma, above 100 µM. In the experiment with NCI-H23 lung, this compound gave a concentration for total growth inhibition (TGI) above 100 µM.
As for `O=C(N/N=C/c1ccc2c(c1)CCC2)c1ccccc1O`, the total growth inhibition concentration (TGI) in the experiment on PC-3 prostate is 53.4 µM; in the experiment with SK-OV-3 ovarian it was 30 µM; in the experiment with SNB-75 CNS, 38 µM; in the experiment with DU-145 prostate, above 100 µM; in the experiment with SK-MEL-28 melanoma, 68.2 µM; in the experiment on SK-MEL-2 melanoma, 60 µM. In addition, in the experiment with NCI-H23 lung, the TGI came out at 82.2 µM.
As for `CC(=O)NC1=C(OS(=O)(=O)c2ccc(C)cc2)CN(C)C1=O`, the concentration for total growth inhibition (TGI) was 10.1 µM with PC-3 prostate; 21 µM in the experiment with SK-OV-3 ovarian; 15.1 µM with SNB-75 CNS; 16.7 µM in the experiment on DU-145 prostate; above 42.7 µM with SK-MEL-28 melanoma; 9.63 µM in the experiment on SK-MEL-2 melanoma. In the experiment with NCI-H23 lung, this compound gave a TGI of 15.3 µM.
In the case of `O=C1C(=O)c2c(nc3ccc(Cl)cn23)-c2ccccc21`, the GI50 in the experiment with PC-3 prostate is 1.2 µM; in the experiment with SK-OV-3 ovarian, 1.71 µM; in the experiment with SNB-75 CNS, 1.25 µM; in the experiment with DU-145 prostate it was 0.223 µM; in the experiment with SK-MEL-28 melanoma, 0.253 µM; in the experiment on SK-MEL-2 melanoma, 0.432 µM. In addition, the 50% growth inhibitory concentration (GI50) with NCI-H23 lung is 0.324 µM. Moreover, the TGI with PC-3 prostate is 10.6 µM; with SK-OV-3 ovarian, 3.31 µM; in the experiment with SNB-75 CNS, 2.61 µM; with DU-145 prostate, 0.452 µM; in the experiment on SK-MEL-28 melanoma, 0.557 µM; in the experiment on SK-MEL-2 melanoma, 1.61 µM. The compound also displayed a concentration for total growth inhibition (TGI) in the experiment with NCI-H23 lung of 1.47 µM.
Regarding `O[C@H]1CO[C@H]2[C@@H]1OC[C@@H]2Oc1ccc(Nc2ccnc(Nc3ccc(O[C@H]4CO[C@H]5[C@@H]4OC[C@@H]5O)c(Cl)c3)n2)cc1Cl`, the GI50 was 2.26 µM in the experiment on PC-3 prostate; 2.53 µM in the experiment with SK-OV-3 ovarian; 1.27 µM with SNB-75 CNS; 1.56 µM in the experiment on DU-145 prostate; 3.04 µM in the experiment on SK-MEL-28 melanoma; 1.71 µM in the experiment on SK-MEL-2 melanoma. Also, the GI50 in the experiment on NCI-H23 lung was 1.49 µM. Also, the concentration for total growth inhibition (TGI) in the experiment on PC-3 prostate was 11.2 µM; with SK-OV-3 ovarian, 10 µM; in the experiment on SNB-75 CNS it was 4.77 µM; with DU-145 prostate it was 4.19 µM; with SK-MEL-28 melanoma, 11.6 µM; in the experiment with SK-MEL-2 melanoma, 5.02 µM. The same compound had a TGI in the experiment on NCI-H23 lung of 4.6 µM.
Take `O=C(O)C/C=C/CC(=O)O`: the TGI in the experiment with PC-3 prostate, in the experiment with SK-OV-3 ovarian, in the experiment with SNB-75 CNS, in the experiment on DU-145 prostate, in the experiment with SK-MEL-28 melanoma and in the experiment with SK-MEL-2 melanoma was above 100 µM throughout. The compound further had a concentration for total growth inhibition (TGI) in the experiment with NCI-H23 lung above 100 µM.
For the compound `CNC(=O)OCc1c(COC(=O)NC)c(C)n(-c2ccc(Br)cc2)c1C`, the concentration for total growth inhibition (TGI) in the experiment with PC-3 prostate was 65.8 µM; in the experiment on SK-OV-3 ovarian it was 34.2 µM; in the experiment on SNB-75 CNS, 19.1 µM; with DU-145 prostate it was 36.2 µM; with SK-MEL-28 melanoma, 35.2 µM; with SK-MEL-2 melanoma it was 31 µM. Moreover, the TGI in the experiment with NCI-H23 lung was determined as 35.4 µM.
For the compound `Cc1ccc(C(=O)Nc2cccc(C(F)(F)F)c2)cc1Nc1nc(-c2cccnc2)nc2c1cnn2C`, the GI50 in the experiment with PC-3 prostate is 3.05 µM and 2.65 µM; in the experiment with SK-OV-3 ovarian, 4.48 µM and 3.79 µM; in the experiment on SNB-75 CNS, 2.83 µM and 2.17 µM; in the experiment with DU-145 prostate it was 5.5 µM and 3.09 µM; in the experiment on SK-MEL-28 melanoma, 0.866 µM and 0.389 µM; in the experiment on SK-MEL-2 melanoma, 0.721 µM and 0.367 µM. For the same compound, the GI50 in the experiment with NCI-H23 lung is 1.81 µM and 1.3 µM. Further, the total growth inhibition concentration (TGI) in the experiment on PC-3 prostate was 11.1 µM and > 10 µM; with SK-OV-3 ovarian, 22.2 µM and > 10 µM; in the experiment on SNB-75 CNS, 11.1 µM and 6.05 µM; with DU-145 prostate, 26.7 µM and > 10 µM; with SK-MEL-28 melanoma, 7.66 µM and 3.4 µM; in the experiment with SK-MEL-2 melanoma it was 5.03 µM and 2.07 µM. In addition, the TGI in the experiment on NCI-H23 lung is 12.8 µM and 9.54 µM.
Turning to `CC1=C(CCC(C)N(C)Cc2ccc(OCCCN3CCCC3)cc2)C(C)(C)CCC1` (stereo not given), the GI50 is 3.28 µM with PC-3 prostate; 11.4 µM in the experiment on SK-OV-3 ovarian; 1.58 µM in the experiment on SNB-75 CNS; 10.8 µM in the experiment on DU-145 prostate; 1.68 µM with SK-MEL-28 melanoma; 2.96 µM in the experiment with SK-MEL-2 melanoma. Also, the GI50 in the experiment with NCI-H23 lung was 10.4 µM. Besides, the concentration for total growth inhibition (TGI) in the experiment with PC-3 prostate was 14.1 µM; in the experiment on SK-OV-3 ovarian, 23.8 µM; in the experiment with SNB-75 CNS, 3.92 µM; in the experiment with DU-145 prostate it was 23.4 µM; in the experiment on SK-MEL-28 melanoma, 3.5 µM; in the experiment with SK-MEL-2 melanoma, 7.49 µM. For the same compound, the concentration for total growth inhibition (TGI) in the experiment with NCI-H23 lung came out at 24.9 µM.
As for `C[C@]12CC[C@H]3[C@@H](CCC4=CC(=O)CC[C@@H]43)[C@@H]1CC[C@@H]2OC(=O)CCc1ccccc1`, the GI50 is 24.4 µM in the experiment with PC-3 prostate; 44.1 µM with SK-OV-3 ovarian; 29 µM in the experiment on SNB-75 CNS; 15.6 µM with DU-145 prostate; 16.8 µM with SK-MEL-28 melanoma; 41 µM with SK-MEL-2 melanoma. In addition, the GI50 with NCI-H23 lung is 19.9 µM. For the same compound, the TGI was above 84.2 µM with PC-3 prostate; above 100 µM with SK-OV-3 ovarian; above 100 µM with SNB-75 CNS; 32.5 µM in the experiment with DU-145 prostate; 37 µM in the experiment with SK-MEL-28 melanoma; above 100 µM in the experiment with SK-MEL-2 melanoma. Also, the total growth inhibition concentration (TGI) with NCI-H23 lung came out at 44.1 µM.
As for `N=C(N)c1ccc(N2CCCN(c3ccc(C(=N)N)cc3)CC2)cc1`, the GI50 is above 100 µM in the experiment with PC-3 prostate; above 100 µM in the experiment on SK-OV-3 ovarian; above 100 µM with SNB-75 CNS; 46.7 µM in the experiment with DU-145 prostate; above 100 µM in the experiment on SK-MEL-28 melanoma; above 100 µM with SK-MEL-2 melanoma. For the same compound, the GI50 with NCI-H23 lung was 74.5 µM. Moreover, the total growth inhibition concentration (TGI) in the experiment with PC-3 prostate, in the experiment on SK-OV-3 ovarian, with SNB-75 CNS, with DU-145 prostate, in the experiment on SK-MEL-28 melanoma and in the experiment on SK-MEL-2 melanoma was above 100 µM throughout. The TGI in the experiment with NCI-H23 lung was above 100 µM.
